Read-outs that look alike come from different tables or passages of the source.
Legend:
PvNMT[WT] [1] = biological target: T1, PvNMT[WT] (Plasmodium vivax, UniProt A5K1A2); test: biochemical; type: binding; details: 5 μM compound, absence of MyrCoA; read-out: thermal stabilization (ΔTm) of PvNMT[WT]
T1 construct: hexaHis (3C protease-cleavable) (N); made in house; host or cells: E. coli Rosetta-gami (DE3), pET11a

PvNMT[G386E] [2] = biological target: T2, PvNMT[G386E] (Plasmodium vivax, UniProt A5K1A2, G386E); test: biochemical; type: biochemical, P. vivax
PvNMT[G386E] [3] = biological target: T2, PvNMT[G386E]; test: Thermal shift assay; type: binding, P. vivax; details: 5 μM compound
[4] = tested on: P. falciparum 3D7 parasites; test: Parasite development and GAP45 immunofluorescence at four times EC50; type: cell-based; details: at four times the EC50 value (140 nM), 45 h PI
Procedure: For IFA, slides were air dried, fixed in 4 % paraformaldehyde (PFA) in PBS for 10–20 min, permeabilized in 0.1 % Triton X-100 in PBS for 10 min, and blocked with 3 % BSA in PBS for at least 30 min at 4°C. GAP45 detection was achieved using a primary rabbit anti-GAP45-antibody ([Rees-Channer et al., 2006]). Slides were mounted in ProLong® Gold Antifade mounting medium containing DAPI (4’,6-diamidino-2-phenylindole), and viewed on a Nikon Eclipse Ni-E imaging system with a Hamamatsu Orca-flash 4.0 digital camera and a Plan apo λ 100x/1.45 oil immersion objective. Images were captured using Nikon’s NIS-Elements imaging software generating Z-stack images of individual parasites, using deconvolution options and exporting the image as a tiff file, which was further edited using Adobe Photoshop.

[5] = tested on: N-myristoylation in WT 3D7 parasites; test: YnMyr metabolic labelling of NMT substrates; type: cell-based, P. falciparum; details: 140 nM, 36–45 h post-invasion
Procedure: Synchronized populations of stage-specific parasites were labelled with 25 μM of YnMyr for the specified length of time. Parasites were then lysed in 0.15 % saponin for 10 min on ice. The pellet was washed until the supernatant was colorless and then stored at -80°C. Thawed parasite pellets were extracted in 1 % Triton X-100, 0.1 % SDS in PBS on ice for 20 min with 1 min sonication. The protein concentration of the lysate was measured by BCA assay and adjusted to 1 mg/mL with PBS. The capture reagent was ‘clicked’ (100 μM capture reagent AzRB2, 1 mM CuSO4, 1 mM TCEP, 100 μM TBTA), the reaction was quenched with EDTA, and then precipitated proteins were washed with ice cold methanol as described previously ([Heal et al., 2011], [Wright et al., 2015]). Proteins were re-dissolved in 2 % SDS, 10 mM DTT, in PBS at 1 mg/mL and heated for 7 min at 95°C in sample loading buffer prior to SDS-PAGE.
Following the click reaction, the protein solution in PBS containing 2 % SDS, 10 mM DTT was treated with 0.2 M NaOH for 1 h at room temperature with vortexing. Samples were neutralized with an equivalent volume and concentration of HCl and diluted with PBS to 1 mg/mL prior to gel analysis.

PvNMT[WT] [6] = biological target: T1, PvNMT[WT]; type: binding; details: SPR sensorgrams
[7] = tested on: IMP-1002-resistant P. falciparum Dd2 parasites (uncloned population and clones, NMT G386E); test: microbe, parasite or virus in culture; type: cell-based; details: for EC50: Plasmodium falciparum, DD2, 72 h
[8] = tested on: P. falciparum 3D7 parasites (PfNMT[WT]); test: microbe, parasite or virus in culture; type: cell-based; details: for EC50: Plasmodium falciparum
[9] = tested on: P. falciparum Dd2 parental line; test: microbe, parasite or virus in culture; type: cell-based; details: EC50 after 72 h (n = 3)
[10] = tested on: P. falciparum 3D7 PfNMT[G386E] clones; test: microbe, parasite or virus in culture; type: cell-based; details: for EC50: Plasmodium falciparum
WT 3D7 parasites = test: Flow cytometry of Hoechst-stained parasites (number of nuclei); type: cell-based, P. falciparum; details: 140 nM for 45 h from ring stage
Procedure: Synchronized parasites were incubated with DMSO or NMTi and samples were fixed in 2% PFA, 0.2 % glutaraldehyde for 1 hour at 45 h PI. Subsequently samples were washed in PBS and labelled with 1:500 of 10 mg/mL Hoechst 33342 for 10 min with a subsequent wash in PBS. For analysis, a Flow Cytometry CL1 Fortessa D Analyzer from BD with FACSDiva software v8.0.1 was used with the 450-50 filter counting 50,000 RBC per sample. Data were analyzed using FlowJo LLC 2006-2015 to determine the median fluorescence intensity (MFI) of each sample after gating out the RBC population using an RBC only sample as a control. The MFI of each sample was divided by the MFI of a control sample of synchronized rings with a known MFI of one nucleus.

PfNMT[G386E] parasites = test: microbe, parasite or virus in culture; type: cell-based
HsNMT1 = HsNMT1 (Homo sapiens, UniProt P30419); type: biochemical; details: selectivity, CPM assay
PvNMT[G386E] [11] = biological target: T2, PvNMT[G386E]; type: binding, P. vivax
HsNMT2 = HsNMT2 (Homo sapiens, UniProt O60551); type: biochemical; details: selectivity, CPM assay
[12] = tested on: N-myristoylation in PfNMT[G386E] parasite clones; type: cell-based; details: 140 nM, 36–45 h post-invasion
[13] = tested on: P. falciparum 3D7 parasites; set-up: method as in Wright et al., 2014; details: four times the EC50 concentration from beginning of 48-h cycle, ref Wright et al., 2014; cited from earlier work
[14] = 3D7, read-out: Growth assay PfNMT[WT] EC50
[15] = 3D7, read-out: Growth assay PfNMT[G386E] Clone 1 EC50
[16] = 3D7, read-out: Growth assay PfNMT[G386E] Clone 2 EC50

T2 sequence (A5K1A2 27-410 G386E): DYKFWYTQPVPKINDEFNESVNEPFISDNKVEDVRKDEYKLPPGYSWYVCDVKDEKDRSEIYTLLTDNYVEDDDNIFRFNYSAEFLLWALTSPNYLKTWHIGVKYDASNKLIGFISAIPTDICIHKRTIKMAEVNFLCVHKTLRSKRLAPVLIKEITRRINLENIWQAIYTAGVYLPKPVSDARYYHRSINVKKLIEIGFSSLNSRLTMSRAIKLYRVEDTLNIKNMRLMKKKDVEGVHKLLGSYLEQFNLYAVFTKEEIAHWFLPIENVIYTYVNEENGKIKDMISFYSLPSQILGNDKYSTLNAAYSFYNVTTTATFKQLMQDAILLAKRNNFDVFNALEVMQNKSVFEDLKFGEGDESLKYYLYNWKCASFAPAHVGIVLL
T1 sequence (A5K1A2 entry or part of it): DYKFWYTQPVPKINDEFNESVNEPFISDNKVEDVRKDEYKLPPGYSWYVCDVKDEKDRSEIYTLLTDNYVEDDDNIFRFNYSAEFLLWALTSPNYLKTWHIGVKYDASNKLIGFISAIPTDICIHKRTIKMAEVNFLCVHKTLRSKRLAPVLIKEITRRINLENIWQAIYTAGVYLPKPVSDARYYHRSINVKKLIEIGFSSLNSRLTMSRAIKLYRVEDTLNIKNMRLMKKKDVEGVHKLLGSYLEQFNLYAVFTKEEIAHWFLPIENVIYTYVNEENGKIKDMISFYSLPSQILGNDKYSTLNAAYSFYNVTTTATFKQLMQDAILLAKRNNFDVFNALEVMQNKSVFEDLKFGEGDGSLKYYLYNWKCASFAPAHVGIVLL
HsNMT2, sequence (O60551 whole entry): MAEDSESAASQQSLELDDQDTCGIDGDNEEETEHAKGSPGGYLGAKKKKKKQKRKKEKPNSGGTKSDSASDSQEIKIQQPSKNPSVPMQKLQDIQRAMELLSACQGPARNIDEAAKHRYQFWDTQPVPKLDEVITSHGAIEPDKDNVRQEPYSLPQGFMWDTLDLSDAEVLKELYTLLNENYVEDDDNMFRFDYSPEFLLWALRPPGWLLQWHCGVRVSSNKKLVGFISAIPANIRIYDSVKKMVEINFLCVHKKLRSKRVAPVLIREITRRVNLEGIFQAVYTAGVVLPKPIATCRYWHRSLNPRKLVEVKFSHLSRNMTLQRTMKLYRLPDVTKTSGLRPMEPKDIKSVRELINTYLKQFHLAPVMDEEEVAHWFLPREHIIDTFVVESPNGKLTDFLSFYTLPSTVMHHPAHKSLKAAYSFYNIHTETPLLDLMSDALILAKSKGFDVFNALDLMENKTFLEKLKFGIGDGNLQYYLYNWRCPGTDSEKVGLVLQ
HsNMT1, sequence (P30419 whole entry): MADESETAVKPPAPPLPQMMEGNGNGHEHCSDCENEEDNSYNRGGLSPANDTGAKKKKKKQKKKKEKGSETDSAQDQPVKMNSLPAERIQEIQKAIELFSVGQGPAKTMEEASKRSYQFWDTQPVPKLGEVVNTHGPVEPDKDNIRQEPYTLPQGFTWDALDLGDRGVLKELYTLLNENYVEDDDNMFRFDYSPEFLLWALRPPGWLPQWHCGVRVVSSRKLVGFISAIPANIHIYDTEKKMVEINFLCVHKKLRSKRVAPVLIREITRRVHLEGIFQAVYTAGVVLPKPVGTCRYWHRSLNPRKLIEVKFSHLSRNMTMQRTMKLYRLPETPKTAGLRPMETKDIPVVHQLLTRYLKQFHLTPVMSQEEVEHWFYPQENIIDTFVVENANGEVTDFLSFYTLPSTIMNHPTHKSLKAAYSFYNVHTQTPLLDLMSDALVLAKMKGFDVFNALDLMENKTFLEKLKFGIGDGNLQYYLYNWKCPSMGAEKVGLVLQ

Cc1nn(C)c(C)c1CCOc1cc(F)ccc1-c1ccc2c(c1)c(CN(C)C)nn2C [IMP-1002, 1-(5-(4-fluoro-2-(2-(1,3,5-trimethyl-1H-pyrazol-4-yl)ethoxy)phenyl)-1-methyl-1H-indazol-3-yl)-N,N-dimethylmethanamine]
ΔTm at 5 µM (PvNMT[WT] [1]): > 8.8 °C
IC50 ratio of G386E/WT on average (PvNMT[G386E] [2]): 2.6
Ratio PvNMT[G386E]/PvNMT[WT] IC50, Replicate 1 (PvNMT[G386E] [2]): 3.1
Ratio PvNMT[G386E]/PvNMT[WT] IC50, Replicate 2 (PvNMT[G386E] [2]): 3.4
Ratio PvNMT[G386E]/PvNMT[WT] IC50, Replicate 3 (PvNMT[G386E] [2]): 1.4
IC50 (PvNMT[G386E] [2]; PvNMT[G386E] IC50, Replicate 1): 6 nM
IC50 (PvNMT[G386E] [2]; PvNMT[G386E] IC50, Replicate 2): 7.1 nM
IC50 (PvNMT[G386E] [2]; PvNMT[G386E] IC50, Replicate 3): 6.9 nM
thermal stabilization (ΔTm) of PvNMT[G386E] (PvNMT[G386E] [3]; absence of MyrCoA): 1.8 °C
ΔΔTm between PvNMT[WT] and PvNMT[G386E] (PvNMT[G386E] [3]; absence of MyrCoA (Table S4A), in favor of WT): > 7.0 °C
accumulation of NMT substrate GAP45 [4]: inhibiting accumulation
YnMyr labeling in WT parasites [5]: clear decrease in YnMyr labeling
dissociation rate with PvNMT[WT] (PvNMT[WT] [6]): slow dissociation rate
EC50 ([7]; read-out: EC50 Clone 01): 270 ± 40 nM
EC50 ([7]; read-out: EC50 Clone 02): 300 ± 140 nM
EC50 ([7]; read-out: EC50 Clone 03): 240 ± 63 nM
EC50 ([7]; read-out: EC50 uncloned population): 320 ± 50 nM
increase in EC50 of IMP-1002-resistant clones ([7]; resistant Dd2 clones versus Dd2 parental line): 14 fold
fold more potent in killing parasites than DDD85646 [8]: 4 fold
EC50 [8, 14]: 9.6 nM
EC50 ([8]; 3D7 parasites, initial EC50 determination (Figures 2A, S2A), read-out: parasite growth EC50): 34 nM
EC50 [9]: 35 nM
EC50 ([9]; Plasmodium falciparum, DD2, 72 h): 20.4 ± 4.9 nM
Ratio PfNMT[G386]/PfNMT[WT] EC50, Clone 1 ([10]; EC50 of [G386E]/[WT], Clone 1): 24
Ratio PfNMT[G386]/PfNMT[WT] EC50, Clone 2 ([10]; EC50 of [G386E]/[WT], Clone 2): 21
EC50 [10, 15]: 230 nM
EC50 [10, 16]: 201 nM
number of nuclei versus DMSO control, WT parasites (WT 3D7 parasites): reduced number of nuclei
number of nuclei versus DMSO control, PfNMT[G386E] parasites (PfNMT[G386E] parasites; 140 nM for 45 h from ring stage): no difference
inhibition at 0.14 µM (PfNMT[G386E] parasites; Plasmodium falciparum, read-out: inhibition of [G386E] parasites): 0%
HsNMT1/PvNMT fold difference in IC50 (HsNMT1): 2.32
decrease in affinity (KD PvNMT[G386E] / KD PvNMT[WT]) (PvNMT[G386E] [11]): approximately 5 fold
HsNMT2/PvNMT fold difference in IC50 (HsNMT2): 3.84
YnMyr labeling in PfNMT[G386E] parasite clones [12]: no reduction in labeling

Cc1nn(C)c(C)c1NS(=O)(=O)c1c(Cl)cc(-c2ccnc(N3CCNCC3)c2)cc1Cl [DDD85646, reference compound]
nuclei at stalled pseudoschizont stage [13]: 4–6 nuclei
EC50 [8, 14]: 69 nM
EC50 [10, 15]: 91 nM
EC50 [10, 16]: 103 nM

— publication PMC6658617, “Structure-Guided Identification of Resistance Breaking Antimalarial N‑Myristoyltransferase Inhibitors” (Cell Chemical Biology, 2019)
